# Test system: male ICR-mice
# Experiment: Potentiation of sodium pentobarbital sleeping time test
# Format: in vivo
# Conditions: oral, 2.5 mg/kg, 38 mg/kg sodium pentobarbital 60 min later
# Description: Effects of N^6-substituted adenosine derivatives and/or N^6-substituted adenine derivatives on sodium pentobarbital-induced sleeping time in mice.
# Name of Experiment: Potentiation of sodium pentobarbital sleeping time test.
# Method of Experiment: Groups of 8-10 male ICR-mice with an average weight of 18-22 g were used. They were dosed orally or i.p. with the test compound or the vehicle. Thirty min after i.p. injection or 60 min after oral dosing 38 mg/kg sodium pentobarbital were injected intravenously. The latency and duration of sleep (loss of righting reflex) were recorded. The percentage of prolongation of sleeping time was calculated as: [(sleeping time of experimental group)−(sleeping time of control group)]/(sleeping time of control group)×100%.
row,Compound,Sleep prolonging rate (%)
1,"CCC(Nc1ncnc2c1ncn2[C@@H]1O[C@H](CO)[C@@H](O)[C@H]1O)c1ccccc1 (mixture of isomers) [Example 72, N^6-[(±)-1-(phenyl)-propyl]-adenosine]",135

# Same assay, conditions: oral, 5 mg/kg, 38 mg/kg sodium pentobarbital 60 min later
row,Compound,Sleep prolonging rate (%)
1,"CCCC(Nc1ncnc2c1ncn2[C@@H]1O[C@H](CO)[C@@H](O)[C@H]1O)c1ccc(OC)cc1 (mixture of isomers) [Example 88, N^6-[(±)-1-(4-methoxyphenyl)-butyl]-adenosine]",80
2,CCCC(=O)Oc1ccc(CNc2ncnc3c2ncn3[C@@H]2O[C@H](CO)[C@@H](O)[C@H]2O)cc1OC [N^6-(3-methoxy-4-butanoyloxy-benzyl)-adenosine],11
3,"CC[C@@H](Nc1ncnc2c1ncn2C1CCCO1)c1ccccc1 (stereo partly drawn) [Example 146, N^6-[(R)-1-(phenyl)-propyl]-N^9-(tetrahydrofuran-2-yl)-adenine]",2
4,"CC[C@@H](Nc1ncnc2c1ncn2[C@@H]1O[C@H](COC(C)=O)C(O)C1O)c1ccccc1 (stereo partly drawn) [Example 77, N^6-[(R)-1-(phenyl)-propyl]-adenosine-5′-acetate]",590
5,"CCOC(=O)[C@@H](Cc1c[nH]c2ccccc12)Nc1ncnc2c1ncn2[C@@H]1O[C@H](CO)C(O)C1O (some centres unmarked) [Example 114, N-(6-adenosine)-(D)-tryptophan ethyl ester]",16
6,"CN(Cc1ccccc1)c1ncnc2c1ncn2[C@@H]1O[C@H](CO)[C@@H](O)[C@H]1O [Example 133, N^6-methyl-N^6-benzyl-adenosine]",27
7,"C[C@H]([C@H](O)c1ccccc1)N(C)c1ncnc2c1ncn2[C@@H]1O[C@H](CO)C(O)C1O (stereo partly drawn) [Example 136, N^6-methyl-N^6-[2-(1R,2R)-(1-hydroxy-1-phenyl)-propyl]-adenosine]",44
8,"CC[C@@H](Nc1ncnc2c1ncn2[C@@H]1O[C@H](COC(C)=O)C(OC(C)=O)C1OC(C)=O)c1ccccc1 (stereo partly drawn) [Example 76, N^6-[(R)-1-(phenyl)-propyl]-adenosine-2′,3′,5′-triacetate]",339
9,"OC[C@H]1O[C@@H](n2cnc3c(N[C@H](CO)[C@H](O)c4ccccc4)ncnc32)C(O)C1O (stereo partly drawn) [Example 42, N^6-[(1R,2R)-2-(1,3-dihydroxy-1-phenyl)-propyl]-adenosine]",4
10,"OC[C@H]1O[C@@H](n2cnc3c(N[C@H](c4ccccc4)[C@@H](O)c4ccccc4)ncnc32)C(O)C1O (stereo partly drawn) [Example 99, N^6-{(1S,2R)-[2-hydroxy-(1,2-diphenyl)]-ethyl}-adenosine]",46
11,"CC[C@H](Nc1ncnc2c1ncn2[C@@H]1O[C@H](COC(=O)/C=C/c2ccc(C)cc2)C(O)C1O)c1ccccc1 (stereo in doubt) [Example 82, N^6-[(S)-1-(phenyl)-propyl]-adenosine-5′-p-methyl-cinnamate]",50
12,"OC[C@H]1O[C@@H](n2cnc3c(NC(Cc4ccccc4)c4ccccc4)ncnc32)C(O)C1O (mixture of isomers) [Example 94, N^6-[(±)-1-(1,2-diphenyl)-ethyl]-adenosine]",36
13,"CCCC(=O)OCC1OC(n2cnc3c(NCc4ccc(OC(=O)CCC)c(OC)c4)ncnc32)C2OC(C)(C)OC12 (centres unmarked) [N^6-(3-methoxy-4-butanoyloxy-benzyl)-2′,3′-O-isopropylidene-adenosine-5′-butyrate]",21
14,N^6-[(S)-1-(phenyl)-propyl]-adenosine-5′-decanoic ether [Example 84],4
15,"CC(=O)OC[C@H]1O[C@@H](n2cnc3c(NCc4ccc(C)cc4)ncnc32)C[C@H]1OC(C)=O [Example 150, N^6-(p-methylbenzyl)-2′-deoxy-3′,5′-diacetyl adenosine]",9
16,"CCOC(=O)[C@H](Cc1c[nH]c2ccccc12)Nc1ncnc2c1ncn2[C@@H]1O[C@H](CO)C(O)C1O (some centres unmarked) [Example 113, N-(6-adenosine)-(L)-tryptophan ethyl ester]",7

# Reference: patent publication US10174033B2, “N6-substituted adenosine derivatives and N6-substituted adenine derivatives and uses thereof” (INSTITUTE OF MATERIA MEDICA, CHINESE ACADEMY OF MEDICAL …, priority 2009, dated 2019)
